Earlier results as cited in US20240398820A1, “METHODS FOR TREATMENT OF PULMONARY HYPERTENSION” (Respira Therapeutics, Inc., priority 2023, published 2024).

Key:
[1] = in vivo
[2] = human patients with PAH, 5 mg orally twice per day
[3] = inhaled, following pulmonary administration

clearance [1]: rapid clearance
tmax [3]: ≤ 2 min
SMILES: CCCc1nc(C)c2c(=O)nc(-c3cc(S(=O)(=O)N4CCN(CC)CC4)ccc3OCC)[nH]n12 [Vardenafil, 1-[[3-(1,4-dihydro-5-methyl-4-oxo-7-propylimidazo[5,1-f][1,2,4]triazin-2-yl)-4-ethoxyphenyl]sulfonyl]-4-ethyl-piperazine]
dissociation rate: slow dissociation rate
safety and efficacy in PAH [2]: safe and effective
